# Like-named read-outs stand apart in the source and are kept apart here.
# What was measured:
# [1] = molecular target: T1, mRORγ LBD (Mus musculus, UniProt P51450); experiment: Biochemical assay, coregulatory peptide recruitment to GST-RORγ LBD (FRET)
# T1 construct: made in house; host or cells: Sf9 insect cells, baculovirus; cleared lysate used directly
# T1 sequence (P51450 251-516): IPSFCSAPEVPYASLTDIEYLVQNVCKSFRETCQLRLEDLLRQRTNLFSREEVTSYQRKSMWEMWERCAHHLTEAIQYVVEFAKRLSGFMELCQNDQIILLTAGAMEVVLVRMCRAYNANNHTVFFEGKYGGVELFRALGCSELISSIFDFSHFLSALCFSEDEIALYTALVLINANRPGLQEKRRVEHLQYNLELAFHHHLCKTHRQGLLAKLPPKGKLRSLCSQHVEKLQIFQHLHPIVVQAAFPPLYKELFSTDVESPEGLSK
# Source text: GST-RORγ was generated by subcloning the RORγ-LBD into pET-41a, a vector which expresses GST fusion proteins in bacteria.
# The cloning steps for GST-RORγ were as follows. The mRORγ LBD was excised from Gal4-mRORγ (see above for cloning steps) at BamHI and HindIII sites of Sequence 1 and cloned into the corresponding sites of pET-41a(+) (EMD Biosciences, San Diego, Calif.). A GST-mRORγ fragment was then excised from pET-41a(+) at XbaI and XhoI sites and cloned into a pcDNA3.1vector (Invitrogen, Carlsbad, Calif.) restricted at NheI and XhoI sites. Plasmid GST-mRORγ-pcDNA3.1 was used as a PCR template to generate a GST-mRORγ fragment that was later cloned into pENTR/D-TOPO vector (Invitrogen, Carlsbad, Calif.) by standard cloning techniques recommended by the manufacturer of the vector. The nucleotide sequence of GST-mRORγ is shown below:
# For baculoviral expression of RORγ, the cDNA fragment of GST-RORγ— LBD, was subcloned from pET-41a into the pENTR/D-TOPO vector using a commercially-available kit (BaculoDirect, Invitrogen). Briefly, GST-RORγ carried by pENTR/D-TOPO was transfected into mono-layer Sf9 cells (8×10^5/well in 6-well plates) by Cellfectin (Invitrogen). Sf9 cells were incubated at 27° C. in a non-humidified incubator for 72 hours. Cell media was collected as P1 viral stock and used to further infect Sf9 cells to generate P2 and P3 virus. […] A plaque assay was performed to determine the titer of P3 virus and to isolate single plaques. P4 virus was generated from a single plaque and propagated on a larger scale.
# Adherent SF9 cells were infected with baculovirus carrying GST-RORγ and were cultured for 72 hours. Sf9 cell were then subject to a brief sonication in a lysis buffer (20 mM phosphate, pH 6.8, 50 mM KCl, 50 mM NaCl, 0.5 mM EDTA, 50% glycerol, 0.001% NP-40 and 1 mM DTT) and centrifuged at 3000 rpm for 15 minutes. […] Cleared cell lysate was stored at −70° C. and is directly utilized in the coregulatory peptide recruitment assay.
# The labeled probes anti-GST-APC and SA-RPE were purchased from Prozyme (San Leandro, Calif.). Compounds were added directly from a DMSO solution to a final concentration of 1-2% DMSO. Fluorescence was measured on a Wallac Victor 2 V plate reader equipped with a 670/40 nm filter (Omega Optical, Brattleboro, Vt.) for APC emission (Channel A) and a 600/25 bandpass filter for monitoring the RPE emission (Channel B).
# [2] = molecular target: T2, mRORγ (Mus musculus, UniProt P51450); experiment: Transcriptional assay, Gal4-mRORγ with luciferase reporter in CHO cells; assay type: cell-based
# T2 construct: expressed in transfected cells; host or cells: CHO cells, transient transfection
# T2 sequence (P51450 with tags, fused parts or gaps): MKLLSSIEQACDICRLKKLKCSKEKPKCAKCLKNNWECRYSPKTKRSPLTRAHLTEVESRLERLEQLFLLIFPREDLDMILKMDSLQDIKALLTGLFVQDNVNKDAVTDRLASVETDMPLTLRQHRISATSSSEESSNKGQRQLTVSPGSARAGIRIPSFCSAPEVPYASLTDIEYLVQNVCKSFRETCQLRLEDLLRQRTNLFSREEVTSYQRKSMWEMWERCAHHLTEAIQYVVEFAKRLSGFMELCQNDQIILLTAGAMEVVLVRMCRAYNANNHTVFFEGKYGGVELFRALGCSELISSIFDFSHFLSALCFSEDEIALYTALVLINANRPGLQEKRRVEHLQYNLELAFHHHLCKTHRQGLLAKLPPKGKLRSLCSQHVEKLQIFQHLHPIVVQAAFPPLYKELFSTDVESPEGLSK
# Procedure: The complete Gal4-mRORγ nucleotide sequence is shown below:
# (§1) A firefly luciferase reporter gene for Gal4 DBD hybrid receptors, such as Gal4-RORγ, contains five copies of the Gal4 17-mer response element in its promoter and the coding sequence for firefly luciferase (pG5-luc, Promega). CHO (Chinese Hamster Ovary) cells were cultured in Ham's F12 medium supplemented with 10% fetal calf serum (Gemini Biologicals), 10 μg/ml penicillin and streptomycin, and were maintained in a humidified 37° C. incubator (Thermo Electron, Steri-Cycle) with 5% CO2. 24 hours before transfection, cells were plated in T175 flasks (5×10^6 cells/flask) or T75 flasks (1.7×10^6 cells/flask). Transient transfection of CHO cells was performed using TransIT-CHO reagents (Minis, Madison, Wis.) with a mixing ratio of 2:6:1 between plasmid DNA (in μg), TransIT-CHO (in μl) and CHO-mojo (in μl).
# (§2) Plates are maintained at 37° C. in a humidified atmosphere with 7% CO2 overnight. Four (4) hours after cell seeding, compounds dissolved in DMSO at 10 mM were added to cells at final concentrations of 20 micromolar (μM) to 20 nanomolar (nM) in 0.2% DMSO in triplicate plates. Approximately 40 hours later, cytotoxicity in the assay well was characterized by addition of the dye resazurin (O'Brien, Wilson et al. 2000) to a final concentration of 3 μM. […] Percent viability was determined as 2 hour fluorescence, minus background at t=0 hours, normalized to DMSO controls. For detection of luciferase activity, media was removed from plates after the measurement of resazurin conversion, and SteadyLite luciferase reagent (Perkin-Elmer) was added (30 μl/well). Luminescence is detected with a Victor 2-V plate reader (Perkin-Elmer) and normalized to luciferase activity of DMSO control wells alone.
# [3] = molecular target: T3, mLXRα (Liver X receptor alpha) (Mus musculus, UniProt Q9Z0Y9); experiment: Transcriptional assay of LXRα (Gal4-LXRα hybrid); assay type: cell-based
# T3 construct: 172-455; expressed in transfected cells; host or cells: CHO cells, transient transfection
# T3 sequence (Q9Z0Y9 172-445 limits assumed): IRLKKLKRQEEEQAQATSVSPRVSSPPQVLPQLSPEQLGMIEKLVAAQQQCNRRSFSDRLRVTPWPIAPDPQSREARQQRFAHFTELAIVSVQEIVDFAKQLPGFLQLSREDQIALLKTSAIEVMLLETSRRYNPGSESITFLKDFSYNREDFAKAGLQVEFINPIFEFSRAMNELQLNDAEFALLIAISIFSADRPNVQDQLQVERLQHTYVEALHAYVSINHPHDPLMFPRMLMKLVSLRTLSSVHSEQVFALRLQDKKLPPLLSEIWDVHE
# Procedure: as §1, §2
# A transcriptional assay for LXRα, using a Gal4-LXRα hybrid, was implemented in order to compare RORγ ligand potencies. In addition to LXRα, transcriptional assays for a number of other major nuclear receptors were developed.
# [4] = Table 2, agonists, biotinylated peptide K, 50% of estimated maximum FRET signal, read-out: EC50 in micromolar at mRORγ Biochemical
# [5] = Table 2, agonists, antagonist OR-376 (1.5 μM) added to reduce basal transcriptional activity, read-out: EC50 in micromolar at mRORγ Transcriptional
# [6] = Table 1, mRORγ and peptide K1, read-out: Assay EC50 in micromolar at mRORγ Biochemical
# [7] = Table 7, taken from Table 1 (peptide K1), read-out: Assay EC50 in micromolar at mRORγ Biochemical
# [8] = Table 7, no unit printed for this column (b114 gives 1.5 μM for OR-1050), read-out: Transcriptional Assay of LXRα EC50
# [9] = Table 1, antagonists, inhibition of basal Gal4-mRORγ transcription in CHO cells, read-out: Assay EC50 in micromolar at mRORγ Transcriptional
# [10] = Table 7, taken from Table 1, read-out: Assay EC50 in micromolar at mRORγ Transcriptional
structure (smiles),measurement,setting,value
"C[C@@H]1CC[C@@]2(OC1)O[C@H]1C[C@H]3[C@@H]4CC[C@H]5C[C@@H](O)CC[C@]5(C)[C@H]4C(=O)[C@@H](O)[C@]3(C)[C@H]1[C@@H]2C [OR-345, 5α, 20α, 22α, 25D-SPIROSTAN-3β, 12β-DIOL-11-ONE]",EC50,"[1]; Table 3, peptide K and 1 μM OR-942, inhibition of the OR-942 baseline by 50%, read-out: Assay EC50 in micromolar biochemical",12.7 µM
same,EC50,"[2]; Table 3, steroidal antagonists, read-out: Assay EC50 in micromolar transcriptional",5 µM
"CC(CCC(=O)O)C1CCC2C1CCC1C3CCC(O)CC3C(O)CC21 (centres unmarked) [OR-412, 4-(3,6-Dihydroxy-hexadecahydro-cyclopenta[a]phenanthren-17-yl)-pentanoic acid]",EC50,[1]; [4],> 100 µM
same,EC50,[2]; [5],> 20 µM
"COC(=O)CCC(C)C1CCC2C3CC(O)C4CC(O)CCC4(C)C3CCC12C (centres unmarked) [OR-942, 4-(3,6-Dihydroxy-10,13-dimethyl-hexadecahydro-cyclopenta[a]phenanthren-17-yl)-pentanoic acid methyl ester]",EC50,"[1]; GST-RORγ and peptide K, in the presence of antagonist T0901317 (FIG. 5), read-out: estimated EC50 in biochemical assay, shifted by antagonist",4 µM
same,EC50,"[1]; GST-RORγ and peptide K, without T0901317 (FIG. 5), read-out: estimated EC50 in biochemical assay",0.4 µM
same,EC50,[1]; [4],0.12 µM
same,EC50,[2]; [5],1.5 µM
same,activation of RORγ transcriptional activity,"[2]; in the presence of one micromolar antagonist T0901317, CHO cells (FIG. 4A)",approximately 8 fold
"CCN(c1ccc(C(OC)(C(F)(F)F)C(F)(F)F)cc1)S(=O)(=O)c1ccccc1 [OR-1030, N-Ethyl-N-[4-(2,2,2-trifluoro-1-methoxy-1-trifluoromethyl-ethyl)-phenyl]-benzenesulfonamide]",EC50,[1]; [6],> 100 µM
same,EC50,[1]; [7],> 100 µM
same,Emax,[3],< 5%
same,EC50,[3]; [8],> 100 µM
same,EC50,[2]; [9],> 20 µM
same,EC50,[2]; [10],> 20 µM
"CCN(c1ccc(C(O)(C(F)(F)F)C(F)(F)F)cc1)S(=O)(=O)c1ccccc1 [OR-1031, N-Ethyl-N-[4-(2,2,2-trifluoro-1-hydroxy-1-trifluoromethyl-ethyl)-phenyl]-benzenesulfonamide]",EC50,[1],3.5 µM
same,EC50,[3],1.4 µM
same,Emax,[3],> 80%
same,EC50,"[2]; Assay EC50 in micromolar at mRORγ Transcriptional, Table 1, antagonists, inhibition of basal Gal4-mRORγ transcription in CHO cells",1.4 µM
same,EC50,"[2]; Assay EC50 in micromolar at mRORγ Transcriptional, Table 7, taken from Table 1",1.4 µM
"O=C(O)CN(c1ccc(C(O)(C(F)(F)F)C(F)(F)F)cc1)S(=O)(=O)c1ccccc1 [OR-1046, {Benzenesulfonyl-[4-(2,2,2-trifluoro-1-hydroxy-1-trifluoromethyl-ethyl)-phenyl]-amino}-acetic acid]",EC50,[1]; [6],> 100 µM
same,EC50,[1]; [7],> 100 µM
same,Emax,[3],< 5%
same,EC50,[3]; [8],> 100 µM
same,EC50,[2]; [9],> 20 µM
same,EC50,[2]; [10],> 20 µM
"CC(CCCO)C1CCC2C3CC(O)C4CC(O)CCC4(C)C3CCC12C (centres unmarked) [OR-12863, 17-(4-Hydroxy-1-methyl-butyl)-10,13-dimethyl-hexadecahydro-cyclopenta[a]phenanthrene-3,6-diol]",EC50,[1]; [4],0.67 µM
same,EC50,[2]; [5],4.1 µM
"COCCCC(C)C1CCC2C3CC(O)C4CC(O)CCC4(C)C3CCC12C (centres unmarked) [OR-12864, 17-(4-Methoxy-1-methyl-butyl)-10,13-dimethyl-hexadecahydro-cyclopenta[a]phenanthrene-3,6-diol]",EC50,[1]; [4],0.23 µM
same,EC50,[2]; [5],6 µM
"CC(CCC(C)(C)O)C1CCC2C3CC(O)C4CC(O)CCC4(C)C3CCC12C (centres unmarked) [OR-12865, 17-(4-Hydroxy-1,4-dimethyl-pentyl)-10,13-dimethyl-hexadecahydro-cyclopenta[a]phenanthrene-3,6-diol]",EC50,[1]; [4],0.21 µM
same,EC50,[2]; [5],8.3 µM
"COC(C)(C)CCC(C)C1CCC2C3CC(O)C4CC(O)CCC4(C)C3CCC12C (centres unmarked) [OR-12866, 17-(4-Methoxy-1,4-dimethyl-pentyl)-10,13-dimethyl-hexadecahydro-cyclopenta[a]phenanthrene-3,6-diol]",EC50,[1]; [4],0.14 µM
same,EC50,[2]; [5],0.56 µM
"CNC(=O)CCC(C)C1CCC2C1CCC1C3CCC(O)CC3C(O)CC21 (centres unmarked) [OR-12867, 4-(3,6-Dihydroxy-hexadecahydro-cyclopenta[a]phenanthren-17-yl)-pentanoic acid methylamide]",EC50,[2]; [5],> 20 µM
"CC(CCC(=O)N(C)C)C1CCC2C3CC(O)C4CC(O)CCC4(C)C3CCC12C (centres unmarked) [OR-12868, 4-(3,6-Dihydroxy-10,13-dimethyl-hexadecahydro-cyclopenta[a]phenanthren-17-yl)-pentanoic acid dimethylamide]",EC50,[1]; [4],0.56 µM
same,EC50,[2]; [5],5.2 µM
"CC(CCC(=O)N1CCCCC1)C1CCC2C1CCC1C3CCC(O)CC3C(O)CC21 (centres unmarked) [OR-12869, 4-(3,6-Dihydroxy-hexadecahydro-cyclopenta[a]phenanthren-17-yl)-1-piperidin-1-yl-pentan-1-one]",EC50,[2]; [5],> 20 µM
"CC(=O)CCC(C)C1CCC2C3CC(O)C4CC(O)CCC4(C)C3CCC12C (centres unmarked) [OR-12870, 5-(3,6-Dihydroxy-10,13-dimethyl-hexadecahydro-cyclopenta[a]phenanthren-17-yl)-hexan-2-one]",EC50,[2]; [5],4.1 µM
"CC(O)CCC(C)C1CCC2C3CC(O)C4CC(O)CCC4(C)C3CCC12C (centres unmarked) [OR-12871, 17-(4-Hydroxy-1-methyl-pentyl)-10,13-dimethyl-hexadecahydro-cyclopenta[a]phenanthrene-3,6-diol]",EC50,[1]; [4],0.25 µM
same,EC50,[2]; [5],8.3 µM
